Data as given in ChEMBL document CHEMBL3734705, “Synthesis and in vitro cytotoxicity of novel C-12 substituted-14-deoxy-andrographolide derivatives as potent anti-cancer agents” (2015).

Key:
NCI-H23 = experiment: Cytotoxicity against human NCI-H23 cells assessed as growth level at 10 uM after 48 hrs by SRB assay; type: functional
NCI-H460 [1] = experiment: Cytotoxicity against human NCI-H460 cells assessed as growth level at 10 uM after 48 hrs by SRB assay; type: functional
[2] = Cytotoxicity against human HCC2998 cells assessed as growth level at 10 uM after 48 hrs by SRB assay; type: functional, HCC 2998
[3] = Cytotoxicity against human HCT116 cells assessed as growth level at 10 uM after 48 hrs by SRB assay; type: functional, HCT-116
[4] = Cytotoxicity against human HCT15 cells assessed as growth level at 10 uM after 48 hrs by SRB assay; type: functional, HCT-15
[5] = Cytotoxicity against human SF268 cells assessed as growth level at 10 uM after 48 hrs by SRB assay; type: functional, SF-268
M14 [6] = experiment: Cytotoxicity against human M14 cells assessed as growth level at 10 uM after 48 hrs by SRB assay; type: functional
SK-MEL-28 = experiment: Cytotoxicity against human SK-MEL-28 cells assessed as growth level at 10 uM after 48 hrs by SRB assay; type: functional
SK-MEL-5 = experiment: Cytotoxicity against human SK-MEL-5 cells assessed as growth level at 10 uM after 48 hrs by SRB assay; type: functional
[7] = Cytotoxicity against human UACC62 cells assessed as growth level at 10 uM after 48 hrs by SRB assay; type: functional, UACC-62
[8] = Cytotoxicity against human IGROV1 cells assessed as growth level at 10 uM after 48 hrs by SRB assay; type: functional, IGROV-1
[9] = Cytotoxicity against human SKOV3 cells assessed as growth level at 10 uM after 48 hrs by SRB assay; type: functional, SK-OV-3
A498 [10] = experiment: Cytotoxicity against human A498 cells assessed as growth level at 10 uM after 48 hrs by SRB assay; type: functional
ACHN [11] = experiment: Cytotoxicity against human ACHN cells assessed as growth level at 10 uM after 48 hrs by SRB assay; type: functional
[12] = Cytotoxicity against human Caki1 cells assessed as growth level at 10 uM after 48 hrs by SRB assay; type: functional, CAKI-1
SN12C [13] = experiment: Cytotoxicity against human SN12C cells assessed as growth level at 10 uM after 48 hrs by SRB assay; type: functional
[14] = Cytotoxicity against human PC3 cells assessed as growth level at 10 uM after 48 hrs by SRB assay; type: functional, PC-3
MCF7 [15] = experiment: Cytotoxicity against human MCF7 cells assessed as growth level at 10 uM after 48 hrs by SRB assay; type: functional
MDA-MB-231 [16] = experiment: Cytotoxicity against human MDA-MB-231 cells assessed as growth level at 10 uM after 48 hrs by SRB assay; type: functional
T47D = experiment: Cytotoxicity against human T47D cells assessed as growth level at 10 uM after 48 hrs by SRB assay; type: functional
NCI-H226 = experiment: Cytotoxicity against human NCI-H226 cells assessed as growth inhibition at 10 uM after 48 hrs by SRB assay; type: functional; conditions: NCI-H226, 48 h, read-out: GI
NCI-H460 [17] = experiment: Cytotoxicity against human NCI-H460 cells assessed as growth inhibition at 10 uM after 48 hrs by SRB assay; type: functional; conditions: NCI-H460, 48 h, read-out: GI
[18] = Cytotoxicity against human COLO205 cells assessed as growth inhibition at 10 uM after 48 hrs by SRB assay; type: functional; conditions: COLO 205, 48 h, read-out: GI
[19] = Cytotoxicity against human HCC2998 cells assessed as growth inhibition at 10 uM after 48 hrs by SRB assay; type: functional; conditions: HCC 2998, 48 h, read-out: GI
[20] = Cytotoxicity against human SF295 cells assessed as growth inhibition at 10 uM after 48 hrs by SRB assay; type: functional; conditions: SF-295, 48 h, read-out: GI
[21] = Cytotoxicity against human SF539 cells assessed as growth inhibition at 10 uM after 48 hrs by SRB assay; type: functional; conditions: SF-539, 48 h, read-out: GI
[22] = Cytotoxicity against human SNB75 cells assessed as growth inhibition at 10 uM after 48 hrs by SRB assay; type: functional; conditions: SNB-75, 48 h, read-out: GI
U-251 = experiment: Cytotoxicity against human U251 cells assessed as growth inhibition at 10 uM after 48 hrs by SRB assay; type: functional; conditions: U-251, 48 h, read-out: GI
Malme-3M = experiment: Cytotoxicity against human MALME-3M cells assessed as growth inhibition at 10 uM after 48 hrs by SRB assay; type: functional; conditions: read-out: GI
M14 [23] = experiment: Cytotoxicity against human M14 cells assessed as growth inhibition at 10 uM after 48 hrs by SRB assay; type: functional; conditions: M14, 48 h, read-out: GI
[24] = Cytotoxicity against human UACC257 cells assessed as growth inhibition at 10 uM after 48 hrs by SRB assay; type: functional; conditions: UACC-257, 48 h, read-out: GI
[25] = Cytotoxicity against human UACC62 cells assessed as growth inhibition at 10 uM after 48 hrs by SRB assay; type: functional; conditions: UACC-62, 48 h, read-out: GI
[26] = Cytotoxicity against human OVCAR4 cells assessed as growth inhibition at 10 uM after 48 hrs by SRB assay; type: functional; conditions: OVCAR-4, 48 h, read-out: GI
[27] = Cytotoxicity against human OVCAR8 cells assessed as growth inhibition at 10 uM after 48 hrs by SRB assay; type: functional; conditions: OVCAR-8, 48 h, read-out: GI
[28] = Cytotoxicity against human NCI-ADR-RES cells assessed as growth inhibition at 10 uM after 48 hrs by SRB assay; type: functional; conditions: read-out: GI
A498 [29] = experiment: Cytotoxicity against human A498 cells assessed as growth inhibition at 10 uM after 48 hrs by SRB assay; type: functional; conditions: A498, 48 h, read-out: GI
ACHN [30] = experiment: Cytotoxicity against human ACHN cells assessed as growth inhibition at 10 uM after 48 hrs by SRB assay; type: functional; conditions: read-out: GI
[31] = Cytotoxicity against human RXF393 cells assessed as growth inhibition at 10 uM after 48 hrs by SRB assay; type: functional; conditions: RXF 393, 48 h, read-out: GI
SN12C [32] = experiment: Cytotoxicity against human SN12C cells assessed as growth inhibition at 10 uM after 48 hrs by SRB assay; type: functional; conditions: read-out: GI
[33] = Cytotoxicity against human DU145 cells assessed as growth inhibition at 10 uM after 48 hrs by SRB assay; type: functional; conditions: DU-145, 48 h, read-out: GI
MCF7 [34] = experiment: Cytotoxicity against human MCF7 cells assessed as growth inhibition at 10 uM after 48 hrs by SRB assay; type: functional; conditions: MCF7, 48 h, read-out: GI
MDA-MB-231 [35] = experiment: Cytotoxicity against human MDA-MB-231 cells assessed as growth inhibition at 10 uM after 48 hrs by SRB assay; type: functional; conditions: MDA-MB-231, 48 h, read-out: GI
CCRF-CEM = experiment: Cytotoxicity against human CCRF-CEM cells assessed as growth level at 10 uM after 48 hrs by SRB assay; type: functional
[36] = Cytotoxicity against human HL-60(TB) cells assessed as growth level at 10 uM after 48 hrs by SRB assay; type: functional
[37] = Cytotoxicity against human SKOV3 cells assessed as growth inhibition at 10 uM after 48 hrs by SRB assay; type: functional; conditions: SK-OV-3, 48 h, read-out: GI

`C=C1CC[C@@H]2[C@](C)(COC(C)=O)[C@H](OC(C)=O)CC[C@@]2(C)[C@@H]1C/C=C1/C(=O)OC[C@H]1OC(C)=O` gave an Activity (NCI-H23) of 80.92%, an Activity (NCI-H460 [1]) of 98.04% and an Activity [2] of 67.32%. The Activity [3] was -37.34%, the Activity [4] was -23.04% and the Activity [5] was 87.06%. The Activity (M14 [6]) was 35.37%, the Activity (SK-MEL-28) was 37.78% and the Activity (SK-MEL-5) was 56.18%. It also gave an Activity [7] of 29.71%, an Activity [8] of 102.65% and an Activity [9] of 101.37%. It also gave an Activity (A498 [10]) of 90.57%, an Activity (ACHN [11]) of 19.55% and an Activity [12] of 81.51%. For the same compound, the Activity (SN12C [13]) was 33.42%, the Activity [14] was 88.46% and the Activity (MCF7 [15]) was 22.9%. It also gave an Activity (MDA-MB-231 [16]) of 95.84%, an Activity (T47D) of 42.77% and an inhibition of growth at 10 µM (NCI-H226) of 76.4%. The inhibition of growth at 10 µM (NCI-H460 [17]) was 1.96%, the inhibition of growth at 10 µM [18] was 78% and the inhibition of growth at 10 µM [19] was 32.7%. It also gave an inhibition of growth at 10 µM [20] of 4.98%, an inhibition of growth at 10 µM [21] of 91.5% and an inhibition of growth at 10 µM [22] of 55.1%. It also gave an inhibition of growth at 10 µM (U-251) of 46%, an inhibition of growth at 10 µM (Malme-3M) of 22.3% and an inhibition of growth at 10 µM (M14 [23]) of 64.6%. For the same compound, the inhibition of growth at 10 µM [24] was 33.5%, the inhibition of growth at 10 µM [25] was 70.3% and the inhibition of growth at 10 µM [26] was 33.5%. It also gave an inhibition of growth at 10 µM [27] of 72.9%, an inhibition of growth at 10 µM [28] of 75% and an inhibition of growth at 10 µM (A498 [29]) of 9.43%. It also gave an inhibition of growth at 10 µM (ACHN [30]) of 80.5%, an inhibition of growth at 10 µM [31] of 7.35% and an inhibition of growth at 10 µM (SN12C [32]) of 66.6%. It also gave an inhibition of growth at 10 µM [33] of 49.1%, an inhibition of growth at 10 µM (MCF7 [34]) of 77.1% and an inhibition of growth at 10 µM (MDA-MB-231 [35]) of 4.16%. For the same compound, the Activity (CCRF-CEM) was -11.4% and the Activity [36] was 79.11%.
`C=C1CC[C@@H]2[C@](C)(COC(C)=O)[C@H](OC(C)=O)CC[C@@]2(C)[C@@H]1CC(NCCCC)C1=CCOC1=O` (mixture of isomers) gave an Activity (NCI-H23) of 89.71%, an Activity (NCI-H460 [1]) of 91.62% and an Activity [2] of 92.1%. It also gave an Activity [3] of 80.22%, an Activity [4] of 96.89% and an Activity [5] of 76.97%. The Activity (M14 [6]) was 92.75%, the Activity (SK-MEL-28) was 98.09% and the Activity (SK-MEL-5) was 76.02%. For the same compound, the Activity [7] was 72.38%, the Activity [8] was 80.01% and the Activity [9] was 92.42%. For the same compound, the Activity (A498 [10]) was 75.44%, the Activity (ACHN [11]) was 99.42% and the Activity [12] was 90.95%. It also gave an Activity (SN12C [13]) of 89.83%, an Activity [14] of 51.19% and an Activity (MCF7 [15]) of 82.86%. For the same compound, the Activity (MDA-MB-231 [16]) was 79.12%, the Activity (T47D) was 71.96% and the inhibition of growth at 10 µM (NCI-H226) was 24.3%. It also gave an inhibition of growth at 10 µM (NCI-H460 [17]) of 8.38%, an inhibition of growth at 10 µM [18] of 17.9% and an inhibition of growth at 10 µM [19] of 7.9%. It also gave an inhibition of growth at 10 µM [20] of 5.72%, an inhibition of growth at 10 µM [21] of 9.46% and an inhibition of growth at 10 µM [22] of 22.1%. The inhibition of growth at 10 µM (U-251) was 13.2%, the inhibition of growth at 10 µM (Malme-3M) was 2.43% and the inhibition of growth at 10 µM (M14 [23]) was 7.25%. For the same compound, the inhibition of growth at 10 µM [24] was 14.8%, the inhibition of growth at 10 µM [25] was 27.6% and the inhibition of growth at 10 µM [26] was 14.3%. The inhibition of growth at 10 µM [27] was 10.4%, the inhibition of growth at 10 µM [28] was 12.7% and the inhibition of growth at 10 µM [37] was 7.58%. For the same compound, the inhibition of growth at 10 µM (A498 [29]) was 24.6%, the inhibition of growth at 10 µM (ACHN [30]) was 0.58% and the inhibition of growth at 10 µM (SN12C [32]) was 10.2%. The inhibition of growth at 10 µM [33] was 0.82%, the inhibition of growth at 10 µM (MCF7 [34]) was 17.1% and the inhibition of growth at 10 µM (MDA-MB-231 [35]) was 20.9%. For the same compound, the Activity (CCRF-CEM) was 80.69% and the Activity [36] was 93.82%.
